Results: US20250051347A1, “BIFUNCTIONAL CHIMERIC HETEROCYCLIC COMPOUND AND USE THEREOF AS ANDROGEN RECEPTOR DEGRADER” (Hinova Pharmaceuticals, Inc., priority 2021, published 2025)
pIC50: −log10 of the molar value. Where two headings read alike, the source gives them in different places.

Experiments:
[1] = molecular target: T1, androgen receptor (AR) splicing variant AR-v7 (Homo sapiens, UniProt P10275); assay: Degradation activity on androgen receptor splicing variant AR-v7 in 22RV1 cells (ELISA); type: cell-based; conditions: AR-v7 degradation in 22RV1 cells, 48 h, class symbols
T1 construct: The degradation activity of compounds on AR-v7 in 22RV1 cells; host or cells: 22RV1 cells
T1 sequence (P10275 1-644 isoform P10275-3): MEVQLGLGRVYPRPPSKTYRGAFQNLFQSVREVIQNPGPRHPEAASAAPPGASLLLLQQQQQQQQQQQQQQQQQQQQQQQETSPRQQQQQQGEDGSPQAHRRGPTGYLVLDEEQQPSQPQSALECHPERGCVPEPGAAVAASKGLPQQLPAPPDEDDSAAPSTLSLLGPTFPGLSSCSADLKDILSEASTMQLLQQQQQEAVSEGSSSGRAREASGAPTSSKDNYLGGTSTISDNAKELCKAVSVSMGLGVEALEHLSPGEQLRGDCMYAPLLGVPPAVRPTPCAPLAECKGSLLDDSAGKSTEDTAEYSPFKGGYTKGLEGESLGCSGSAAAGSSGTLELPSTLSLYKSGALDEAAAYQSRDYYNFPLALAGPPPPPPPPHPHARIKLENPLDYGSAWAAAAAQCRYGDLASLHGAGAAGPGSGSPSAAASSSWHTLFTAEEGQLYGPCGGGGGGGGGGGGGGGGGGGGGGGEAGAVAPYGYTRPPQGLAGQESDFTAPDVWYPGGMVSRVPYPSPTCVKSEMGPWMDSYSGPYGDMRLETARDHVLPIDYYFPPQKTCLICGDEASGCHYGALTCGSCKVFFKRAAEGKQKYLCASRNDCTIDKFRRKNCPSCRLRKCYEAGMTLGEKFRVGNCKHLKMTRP

[2] = tested on: 22RV1 cells; conditions: for IC50: Homo sapiens, 22Rv1, 144 h; for pIC50: read-out: 22RV1 IC50, 22RV1 cells, 6 days culture, CCK-8, OD 450 nm
[3] = read-out: 22RV1 IC50 (nM), 22RV1 cells, 6 days culture, CCK-8, OD 450 nm

Structure (SMILES) | DC50 [1] [nM] | IC50 [2, 3] [nM] | IC50 ([2]; read-out: 22RV1 IC50 (nM)) [nM] | pIC50 [2]
CC(O)c1nccc(COc2ccc(C(C)(C)c3ccc(O[C@H]4C[C@@H](Nc5ccc6c(c5)C(=O)N(C5CCC(=O)NC5=O)C6=O)C4)cc3)cc2)n1 (some centres unmarked) [Example 492] | < 10 | 7 | – | –
CC(C)(c1ccc(OCc2cccc(C(O)C3CC3)n2)cc1)c1ccc(O[C@H]2C[C@H](Nc3ccc4c(c3)C(=O)N(C3CCC(=O)NC3=O)C4=O)C2)cc1 (stereo partly drawn) [Example 116, 5-(((trans)-3-(4-(2-(4-((6-(cyclopropyl(hydroxyl)methyl)pyridin-2-yl)methoxy)phenyl)propan-2-yl)phenoxy)cyclobutyl)amino)-2-(2,6-dioxopiperidin-3-yl)isoindolin-1,3-dione] | < 10 | 17 | – | –
Cc1nc(-c2cccc(Oc3ccc(C(C)(C)c4ccc(O[C@H]5C[C@H](Nc6ccc7c(c6)C(=O)N(C6CCC(=O)NC6=O)C7=O)C5)cc4)cc3)n2)no1 (some centres unmarked) [Example 421] | < 10 | – | 3 | –
CC(C)(c1ccc(Oc2nnc(N3CCOCC3)s2)cc1)c1ccc(O[C@H]2C[C@H](Nc3ccc4c(c3)C(=O)N(C3CCC(=O)NC3=O)C4=O)C2)cc1 (some centres unmarked) [Example 513] | < 10 | 12 | – | –
Cc1nc(-c2ncc(F)cc2Oc2ccc(C(C)(C)c3ccc(O[C@H]4C[C@H](Nc5ccc6c(c5)C(=O)N(C5CCC(=O)NC5=O)C6=O)C4)cc3)cc2)no1 (some centres unmarked) [Example 512] | < 10 | 8 | – | –
CC(=O)c1ncc(Oc2ccc(C(C)(C)c3ccc(OC4CC(Nc5ccc6c(c5)C(=O)N(C5CCC(=O)NC5=O)C6=O)C4)cn3)cc2)cn1 (centres unmarked) [Example 222, 5-((1r,3r)-3-((6-(2-(4-((2-acetylpyrimidin-5-yl)oxy)phenyl)propan-2-yl)pyridin-3-yl)oxy)cyclobutyl)amino)-2-(2,6-dioxopyridin-3-yl)isoindolin-1,3-dione] | < 10 | – | – | 8.52
CC(C)(c1ccc(Oc2ccc(N3CC(N4CC(F)C4)C3)nn2)cc1)c1ccc(O[C@H]2C[C@H](Nc3ccc4c(c3)C(=O)N(C3CCC(=O)NC3=O)C4=O)C2)cc1 (some centres unmarked) [Example 258] | 101 to 1000 | 8 | – | –
CC(C)(c1ccc(Oc2cc(-n3nccn3)ccn2)cc1)c1ccc(O[C@H]2C[C@H](Nc3ccc4c(c3)C(=O)N(C3CCC(=O)NC3=O)C4=O)C2)cc1 (some centres unmarked) [Example 168] | 11 to 100 | 18 | – | –
CC(C)(c1ccc(OCc2ccnc(N3CC4(COC4)C3)n2)c(F)c1)c1ccc(O[C@H]2C[C@H](Nc3ccc4c(c3)C(=O)N(C3CCC(=O)NC3=O)C4=O)C2)c(F)c1 (some centres unmarked) [Example 365, 5-(((1r,3r)-3-(4-(2-(4-((2-(2-oxa-6-azaspiro[3.3]heptane-6-yl)pyrimidin-4-yl)methoxy)-3-fluorophenyl)isopropan-2-yl)-2-fluorophenoxy)cyclobutyl)amino)-2-(2,6-dioxopiperidin-3-yl)isoindolin-1,3-dione] | < 10 | 9 | – | –
CC(C)(c1ccc(Oc2ncnc(N3CC4(COC4)C3)c2F)cc1)c1ccc(O[C@H]2C[C@@H](Nc3ccc4c(c3)C(=O)N(C3CCC(=O)NC3=O)C4=O)C2)cc1 (some centres unmarked) [Example 574] | < 10 | 5 | – | –
CCC(CC)(c1ccc(Oc2cnc(C(C)O)cn2)cc1)c1ccc(O[C@H]2C[C@@H](Nc3ccc4c(c3)C(=O)N(C3CCC(=O)NC3=O)C4=O)C2)cc1 (some centres unmarked) [Example 295] | < 10 | 11 | – | –
CC(=O)c1ccc(Oc2ccc(C3(c4ccc(O[C@H]5C[C@H](Nc6ccc7c(c6)C(=O)N(C6CCC(=O)NC6=O)C7=O)C5)cc4)CCCC3)cc2)nn1 (some centres unmarked) [Example 104] | < 10 | 1 | – | –
Cc1nc(-c2ccc(Oc3ccc(C(C)(C)c4ccc(O[C@H]5C[C@H](Nc6ccc7c(c6)C(=O)N(C6CCC(=O)NC6=O)C7=O)C5)cc4)cc3)cn2)no1 (some centres unmarked) [Example 581] | < 10 | 10 | – | –
Cc1nnc(-c2cnc(Oc3ccc(C(C)(C)c4ccc(O[C@H]5C[C@H](Nc6ccc7c(c6)C(=O)N(C6CCC(=O)NC6=O)C7=O)C5)cc4)cc3)o2)o1 (some centres unmarked) [Example 96, 2-(2,6-dioxopiperidin-3-yl)-5-(((1r,3r)-3-(4-(2-(4-((5-(5-methyl-1,3,4-oxadiazol-2-yl)oxazol-2-yl)oxy)phenyl)propan-2-yl)phenoxy)cyclobutyl)amino) isoindolin-1,3-dione] | < 10 | 25 | – | –
CC(C)(c1ccc(OCc2ccnc(N3CCNCC3)n2)cc1)c1ccc(OC2CC(Nc3ccc4c(c3)C(=O)N(C3CCC(=O)NC3=O)C4=O)C2)cc1 (centres unmarked) [Example 451, 2-(2,6-dioxopiperidin-3-yl)-5-((3-(4-(2-(4-((2-(piperazin-1-yl)pyrimidin-4-yl)methoxy)phenyl)propan-2-yl)phenoxy)cyclobutyl)amino)isoindolin-1,3-dione] | < 10 | 11 | – | –
Cc1nc(-c2ncc(Oc3ccc(C(C)(C)c4ccc(OC5CC(Nc6ccc7c(c6)C(=O)N(C6CCC(=O)NC6=O)C7=O)C5)cn4)cc3)cn2)no1 (centres unmarked) [Example 221, 2-(2,6-dioxopiperidin-3-yl)-5-((1r,3r)-3-((6-(2-(4-((2-(5-methyl-1,2,4-oxadiazol-3-yl)pyrimidin-5-yl)oxy)phenyl)propan-2-yl)pyridin-3-yl)oxy)cyclobutyl)amino)isoindolin-1,3-dione] | < 10 | – | – | 8.22
CC(C)(c1ccc(OCc2cccc(-c3nnco3)n2)cc1)c1ccc(O[C@H]2C[C@H](Nc3ccc4c(c3)C(=O)N(C3CCC(=O)NC3=O)C4=O)C2)cc1 (some centres unmarked) [Example 470, 5-(((1r,3r)-3-(4-(2-(4-((6-(1,3,4-oxadiazol-2-yl)pyridin-2-yl)methoxy)phenyl)propan-2-yl)phenoxy)cyclobutyl)amino)-2-(2,6-dioxopiperidin-3-yl)isoindolin-1,3-dione] | < 10 | 7 | – | –
CC(C)(c1ccc(OCCCNc2ccc3c(c2)C(=O)N(C2CCC(=O)NC2=O)C3=O)cc1)c1ccc(OCc2ccnc(N3CCC4(CC3)COC4)n2)cc1 (centres unmarked) [Example 77, 5-((3-(4-(2-(4-((2-(2-oxa-7-azaspiro[3.5]nonan-7-yl)pyrimidin-4-yl)methoxy)phenyl)propan-2-yl)phenoxy)propyl)amino)-2-(2,6-dioxopiperidin-3-yl)isoindolin-1,3-dione] | 11 to 100 | 44 | – | –
CC(C)(c1ccc(OCCCNc2ccc3c(c2)C(=O)N(C2CCC(=O)NC2=O)C3=O)cc1)c1ccc(OCc2ccnc(N3CC4(COC4)C3)n2)cc1 (centres unmarked) [Example 73, 5-((3-(4-(2-(4-((2-(2-oxa-6-azaspiro[3.3]heptan-6-yl)pyrimidin-4-yl)methoxy)phenyl)propan-2-yl)phenoxy)propyl)amino)-2-(2,6-dioxopiperidin-3-yl)isoindolin-1,3-dione] | 11 to 100 | 25 | – | –
CC(=O)c1cnc(Oc2ccc(C3(c4ccc(OC5CC(Nc6ccc7c(c6)C(=O)N(C6CCC(=O)NC6=O)C7=O)C5)cc4)CCCC3)cc2)cn1 (centres unmarked) [Example 177, 5-(((1r,3r)-3-(4-(1-(4-((5-acetylpyrazin-2-yl)oxy)phenyl)cyclopentyl)phenoxy)cyclobutyl)amino)-2-(2,6-dioxopiperidin-3-yl)isoindolin-1,3-dione] | < 10 | – | – | 8.70
CC(C)(c1ccc(OCc2ccnc(OC3COC3)n2)cc1)c1ccc(O[C@H]2C[C@H](Nc3ccc4c(c3)C(=O)N(C3CCC(=O)NC3=O)C4=O)C2)cc1 (some centres unmarked) [Example 369, 2-(2,6-dioxopiperidin-3-yl)-5-(((1r,3r)-3-(4-(2-(4-((2-(oxetane-3-yloxy)pyrimidin-4-yl)methoxy)phenyl)isopropan-2-yl)phenoxy)cyclobutyl)amino) isoindolin-1,3-dione] | < 10 | 6 | – | –
Cc1nnc(-c2cnnc(Oc3ccc(C(C)(C)c4ccc(O[C@H]5C[C@H](Nc6ccc7c(c6)C(=O)N(C6CCC(=O)NC6=O)C7=O)C5)cc4)cc3)c2)o1 (some centres unmarked) [Example 218] | < 10 | 6 | – | –
CC(Oc1ccc(C(C)(C)c2ccc(O[C@H]3C[C@H](Nc4ccc5c(c4)C(=O)N(C4CCC(=O)NC4=O)C5=O)C3)cc2)cc1)c1ncnc(N2CC3(COC3)C2)c1F (some centres unmarked) [Example 280] | < 10 | 7 | – | –
CC(C)(c1ccc(Oc2cncc(-n3nccn3)n2)cc1)c1ccc(O[C@H]2C[C@H](Nc3ccc4c(c3)C(=O)N(C3CCC(=O)NC3=O)C4=O)C2)cc1 (some centres unmarked) [Example 579] | < 10 | 7 | – | –
CC(C)(c1ccc(OCCCNc2ccc3c(c2)C(=O)N(C2CCC(=O)NC2=O)C3=O)cc1)c1ccc(OCc2nc(CO)co2)cc1 (centres unmarked) [Example 185, 2-(2,6-dioxopiperidin-3-yl)-5-((3-(4-(2-(4-((4-(hydroxylmethyl)oxazol-2-yl)methoxy)phenyl)propan-2-yl)phenoxy)propyl)amino)isoindolin-1,3-dione] | 11 to 100 | 56 | – | –
